From patent US10457707B2, “Substituted urea depsipeptide analogs as activators of the CLPP endopeptidase” (priority 2015, dated 2019)
Values after ≈ are worked out from the molar mass of the structure shown. Like-named read-outs stand apart in the source and are kept apart here. *1 amine or outer side, *2 acyl side, *3 side chain or, on linkers, in order; H or OH if unused. Where a SMILES comes first, the peptide text is derived from it. Bridges are numbered along the chain shown (N, C = ends). [ ]: non-standard residue; d: D form. The star is where a group is joined. Piperazine(2S-CO,4-Me) = CN1CCN[C@H](C(=O)O)C1; NH(1,3-benzodioxol-5-yl) = c1cc2c(cc1N*)OCO2; Phe(3,5-F2) = N[C@@H](Cc1cc(F)cc(F)c1)C(=O)O; NH(4-OCF3-phenyl) = FC(F)(F)Oc1ccc(N*)cc1; Morpholine(3S-CO) = O=C(O)[C@@H]1COCCN1; Pro(4S-Me) = C[C@@H]1CN[C@H](C(=O)O)C1; NH(4-Cl-2-F-phenyl) = Fc1cc(Cl)ccc1N*; Pro(4R-Me) = C[C@H]1CN[C@H](C(=O)O)C1; NMeaThr = CN[C@H](C(=O)O)[C@H](C)O; Hyp = O=C(O)[C@@H]1C[C@@H](O)CN1; NH(4-Et-phenyl) = CCc1ccc(N*)cc1; NMeT = CN[C@H](C(=O)O)[C@@H](C)O; NH(4-Me-phenyl) = Cc1ccc(N*)cc1; aThr = C[C@H](O)[C@H](N)C(=O)O; NMeA = CN[C@@H](C)C(=O)O; CO = O=C([*:1])[*:2]

What was measured:
Type in all cases: cell-based
[1] = Cytotoxicity assay (CellTiter-Glo cell viability, 72 hours); conditions: African green monkey
How it was run: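 Vero cells, 5000/well, grown overnight at 37° C, 5% CO2 in DMEM with 10% FBS, then exposed to serial compound dilutions or DMSO for 72 hours. Viability read by CellTiter-Glo luminescence. IC50 from duplicate wells, reported as range over two independent experiments.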

[2] = test system: Bacillus subtilis, ATCC 23857; experiment: Minimal inhibitory concentration assay (microbroth dilution)
How it was run: (§1)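 CLSI broth microdilution; 2-fold series from 200 μM final; inoculum ~10^5 cfu/mL; 37 °C, aerobic, overnight; visual MIC = lowest conc. without growth. The ClpP-inactivated USA 300 strain is the comparator for ClpP-dependent killing.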

[3] = test system: Staphylococcus aureus, ATCC 29213; experiment: as above; conditions: ATCC29213, read-out: Minimal Inhibitory Concentrations S. aureus ATCC 29213
How it was run: as §1

[4] = test system: Staphylococcus aureus, NRS70; experiment: as above
How it was run: as §1

[5] = test system: Streptococcus pyogenes, ATCC 700294; experiment: as above
How it was run: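 CLSI broth microdilution: two-fold serial compound dilutions in appropriate broth, inoculated and incubated aerobically overnight at 37° C. MIC read visually as lowest concentration preventing bacterial growth.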

[6] = Staphylococcus aureus, NRS70; read-out: Minimal Inhibitory Concentrations S. aureus NRS70
[7] = Streptococcus pyogenes, ATCC700294; read-out: Minimal Inhibitory Concentrations S. pyogenes ATCC 700294
[8] = Bacillus subtilis, ATCC23857; read-out: Minimal Inhibitory Concentrations B. subtilis ATCC 23857
[9] = Vero cells, 72 hours, growth inhibition, read-out: Cytotoxicity IC50
[10] = Bacillus subtilis, ATCC23857, read-out: Minimal Inhibitory Concentrations B. subtilis ATCC 23857
[11] = Staphylococcus aureus, NRS70, read-out: Minimal Inhibitory Concentrations S. aureus NRS70
[12] = Streptococcus pyogenes, ATCC700294, read-out: Minimal Inhibitory Concentrations S. pyogenes ATCC 700294

Row | SMILES | IC50 at 72 h [1] | MIC ([2]; B. subtilis ATCC 23857; read-out: Minimal Inhibitory Concentrations B. subtilis ATCC 23857) | MIC [3] | MIC [4, 6] | MIC [5, 7] | MIC [2, 8] | IC50 at 72 h [1, 9] | MIC [2, 10] | MIC [4, 11] | MIC [5, 12]
1 | C[C@@H]1C[C@H]2C(=O)OC[C@H](NC(=O)[C@H](Cc3ccccc3)NC(=O)Nc3ccc(OC(F)(F)F)cc3)C(=O)N3CCC[C@H]3C(=O)N3CCCC[C@H]3C(=O)N[C@@H](C)C(=O)N2C1 [Compound 205] | 88.3 ± 15.2 µM | 0.2 µM (≈ 0.166 µg/mL) | 0.39 µM (≈ 0.323 µg/mL) | 0.2 µM (≈ 0.166 µg/mL) | 0.1 µM (≈ 0.0828 µg/mL) |  |  |  |  | 
2 | C[C@H]1C[C@H]2C(=O)O[C@@H](C)[C@H](NC(=O)[C@H](Cc3cc(F)cc(F)c3)NC(=O)Nc3ccc(OC(F)(F)F)cc3)C(=O)N3CCC[C@H]3C(=O)N(C)[C@@H]([C@H](C)O)C(=O)N[C@@H](C)C(=O)N2C1 [Compound 203, (S)-3-(3,5-difluorophenyl)-N-((2S,6S,9S,11aS,17S,18S,20aS)-9-((S)-1-hydroxyethyl)-2,6,10,18-tetramethyl-5,8,11,16,20-pentaoxohexadecahydro-1H,5H,16H-dipyrrolo[2,1-c:2′,1′-l][1]oxa[4,7,10,13]tetraazacyclohexadecin-17-yl)-2-(3-(4-(trifluoromethoxy)phenyl)ureido)propanamide] ({NH(4-OCF3-phenyl)-CO}-[Phe(3,5-F2)][aThr]P[NMeaThr]A[Pro(4S-Me)]; ester 2-C) | 25.4 ± 1.8 µM |  | 0.098 µM (≈ 0.0864 µg/mL) | 0.049 µM (≈ 0.0432 µg/mL) | 0.195 µM (≈ 0.172 µg/mL) | 0.098 µM (≈ 0.0864 µg/mL) |  |  |  | 
3 | Cc1ccc(NC(=O)N[C@@H](Cc2cc(F)cc(F)c2)C(=O)N[C@@H]2C(=O)N3CCC[C@H]3C(=O)N3CCOC[C@H]3C(=O)N[C@@H](C)C(=O)N3C[C@H](C)C[C@H]3C(=O)O[C@H]2C)cc1 [Compound 210, (S)-3-(3,5-difluorophenyl)-2-(3-(p-tolyl)ureido)-N-((6aS,12S,13S,15aS,17R,21S,23aS)-13,17,21-trimethyl-6,11,15,20,23-pentaoxooctadecahydro-6H,11H,15H-[1,4]oxazino[3,4-i]dipyrrolo[2,1-c:2′,1′-l][1]oxa[4,7,10,13]tetraazacyclohexadecin-12-yl)propanamide] ({NH(4-Me-phenyl)-CO}-[Phe(3,5-F2)][aThr]P[Morpholine(3S-CO)]A[Pro(4R-Me)]; ester 2-C) |  |  | 0.003 µM (≈ 0.00243 µg/mL) |  |  |  | 5.82 ± 0.39 µM | 0.02 µM (≈ 0.0162 µg/mL) | 0.0002 µM (≈ 0.000162 µg/mL) | 0.02 µM (≈ 0.0162 µg/mL)
4 | C[C@@H]1C[C@H]2C(=O)OC[C@H](NC(=O)[C@H](Cc3cc(F)cc(F)c3)NC(=O)Nc3ccc(Cl)cc3F)C(=O)N3CCC[C@H]3C(=O)N3CCN(C)C[C@H]3C(=O)N[C@@H](C)C(=O)N2C1 [Compound 330, (S)-2-(3-(4-chloro-2-fluorophenyl)ureido)-3-(3,5-difluorophenyl)-N-((6aS,12S,15aS,17R,21S,23aS)-2,17,21-trimethyl-6,11,15,20,23-pentaoxooctadecahydro-2H,6H,11H,15H-pyrazino[2,1-i]dipyrrolo[2,1-c:2′,1′-l][1]oxa[4,7,10,13]tetraazacyclohexadecin-12-yl)propanamide] ({NH(4-Cl-2-F-phenyl)-CO}-[Phe(3,5-F2)]SP[Piperazine(2S-CO,4-Me)]A[Pro(4R-Me)]; ester 2-C) | > 50 µM |  | 0.078 µM (≈ 0.0661 µg/mL) | 0.078 µM (≈ 0.0661 µg/mL) | 0.078 µM (≈ 0.0661 µg/mL) | < 0.02 µM |  |  |  | 
5 | C[C@@H]1C[C@H]2C(=O)O[C@@H](C)[C@H](NC(=O)[C@H](Cc3cc(F)cc(F)c3)NC(=O)Nc3ccc(OC(F)(F)F)cc3)C(=O)N3CCC[C@H]3C(=O)N(C)[C@@H]([C@@H](C)O)C(=O)N[C@@H](C)C(=O)N2C1 [Compound 41, (S)-3-(3,5-difluorophenyl)-N-((2R,6S,9S,11aS,17S,18S,20aS)-9-((R)-1-hydroxyethyl)-2,6,10,18-tetramethyl-5,8,11,16,20-pentaoxohexadecahydro-1H,5H,16H-dipyrrolo[2,1-c:2′,1′-l][1]oxa[4,7,10,13]tetraazacyclohexadecin-17-yl)-2-(3-(4-(trifluoromethoxy)phenyl)ureido)propanamide] ({NH(4-OCF3-phenyl)-CO}-[Phe(3,5-F2)][aThr]P[NMeT]A[Pro(4R-Me)]; ester 2-C) | 23.9 ± 2 µM |  | 0.02 µM (≈ 0.0176 µg/mL) | 0.01 µM (≈ 0.00882 µg/mL) | 0.1 µM (≈ 0.0882 µg/mL) | 0.01 µM (≈ 0.00882 µg/mL) |  |  |  | 
6 | C[C@@H]1C[C@H]2C(=O)OC[C@H](NC(=O)[C@H](Cc3cc(F)cc(F)c3)NC(=O)Nc3ccc4c(c3)OCO4)C(=O)N3C[C@H](O)C[C@H]3C(=O)N3CCOC[C@H]3C(=O)N[C@@H](C)C(=O)N2C1 [Compound 318, (S)-2-(3-(benzo[d][1,3]dioxol-5-yl)ureido)-3-(3,5-difluorophenyl)-N-((6aS,8R,12S,15aS,17R,21S,23aS)-8-hydroxy-17,21-dimethyl-6,11,15,20,23-pentaoxooctadecahydro-6H,11H,15H-[1,4]oxazino[3,4-i]dipyrrolo[2,1-c:2′,1′-l][1]oxa[4,7,10,13]tetraazacyclo-hexadecin-12-yl)propanamide] ({NH(1,3-benzodioxol-5-yl)-CO}-[Phe(3,5-F2)]S[Hyp][Morpholine(3S-CO)]A[Pro(4R-Me)]; ester 2-C) | > 100 µM |  | 20 µM (≈ 16.8 µg/mL) | 20 µM (≈ 16.8 µg/mL) | 0.625 µM (≈ 0.526 µg/mL) | > 20 µM |  |  |  | 
7 | Cc1ccc(NC(=O)N[C@@H](Cc2cc(F)cc(F)c2)C(=O)N[C@@H]2C(=O)N3CCC[C@H]3C(=O)N(C)[C@@H]([C@H](C)O)C(=O)N[C@@H](C)C(=O)N3C[C@@H](C)C[C@H]3C(=O)O[C@H]2C)cc1 [Compound 202, (S)-3-(3,5-difluorophenyl)-N-((2S,6S,9S,11aS,17S,18S,20aS)-9-((S)-1-hydroxyethyl)-2,6,10,18-tetramethyl-5,8,11,16,20-pentaoxohexadecahydro-1H,5H,16H-dipyrrolo[2,1-c:2′,1′-L][1]oxa[4,7,10,13]tetraazacyclohexadecin-17-yl)-2-(3-(p-tolyl)ureido)propanamide] ({NH(4-Me-phenyl)-CO}-[Phe(3,5-F2)][aThr]P[NMeaThr]A[Pro(4S-Me)]; ester 2-C) |  |  | 0.195 µM (≈ 0.158 µg/mL) |  |  |  | 55.7 ± 3.6 µM | 0.195 µM (≈ 0.158 µg/mL) | 0.098 µM (≈ 0.0796 µg/mL) | 0.391 µM (≈ 0.317 µg/mL)
8 | Cc1ccc(NC(=O)N[C@@H](Cc2cc(F)cc(F)c2)C(=O)N[C@@H]2C(=O)N3C[C@H](O)C[C@H]3C(=O)N(C)[C@@H](C)C(=O)N[C@@H](C)C(=O)N3C[C@@H](C)C[C@H]3C(=O)O[C@H]2C)cc1 [Compound 214, (S)-3-(3,5-difluorophenyl)-N-((2S,6S,9S,11aS,13R,17S,18S,20aS)-13-hydroxy-2,6,9,10,18-pentamethyl-5,8,11,16,20-pentaoxohexadecahydro-1H,5H,16H-dipyrrolo[2,1-c:2′,1′-l][1]oxa[4,7,10,13]tetraazacyclohexadecin-17-yl)-2-(3-(p-tolyl)ureido)propanamide] ({NH(4-Me-phenyl)-CO}-[Phe(3,5-F2)][aThr][Hyp][NMeA]A[Pro(4S-Me)]; ester 2-C) |  |  | 0.391 µM (≈ 0.312 µg/mL) |  |  |  | > 100 µM | 0.391 µM (≈ 0.312 µg/mL) | 0.391 µM (≈ 0.312 µg/mL) | 0.781 µM (≈ 0.623 µg/mL)
9 | C[C@@H]1C[C@H]2C(=O)OC[C@H](NC(=O)[C@H](Cc3ccccc3)NC(=O)Nc3ccc4c(c3)OCO4)C(=O)N3CCC[C@H]3C(=O)N3CCCC[C@H]3C(=O)N[C@@H](C)C(=O)N2C1 [Compound 194, (S)-2-(3-(benzo[d][1,3]dioxol-5-yl)ureido)-N-((2R,6S,8aS,14aS,20S,23aS)-2,6-dimethyl-5,8,14,19,23-pentaoxooctadecahydro-1H,5H,14H,19H-pyrido[2,1-i]dipyrrolo[2,1-c:2′,1′-l][1]oxa[4,7,10,13]tetraazacyclohexadecin-20-yl)-3-phenylpropanamide] | > 100 µM |  | 1.56 µM (≈ 1.23 µg/mL) | 0.39 µM (≈ 0.307 µg/mL) | < 0.2 µM | 0.39 µM (≈ 0.307 µg/mL) |  |  |  | 
10 | CCc1ccc(NC(=O)N[C@@H](Cc2cc(F)cc(F)c2)C(=O)N[C@@H]2C(=O)N3CCC[C@H]3C(=O)N(C)[C@@H]([C@@H](C)O)C(=O)N[C@@H](C)C(=O)N3C[C@@H](C)C[C@H]3C(=O)O[C@H]2C)cc1 [Compound 37, (S)-3-(3,5-difluorophenyl)-2-(3-(4-ethylphenyl)ureido)-N-((2S,6S,9S,11aS,17S,18S,20aS)-9-((R)-1-hydroxyethyl)-2,6,10,18-tetramethyl-5,8,11,16,20-pentaoxohexadecahydro-1H,5H,16H-dipyrrolo[2,1-c:2′,1′-l][1]oxa[4,7,10,13]tetraazacyclohexadecin-17-yl)propanamide] ({NH(4-Et-phenyl)-CO}-[Phe(3,5-F2)][aThr]P[NMeT]A[Pro(4S-Me)]; ester 2-C) | 33.8 ± 1.6 µM |  | 0.1 µM (≈ 0.0826 µg/mL) | 0.1 µM (≈ 0.0826 µg/mL) | 0.1 µM (≈ 0.0826 µg/mL) | 0.05 µM (≈ 0.0413 µg/mL) |  |  |  | 
